Test results: patent publication US11571437B2, “Methods of treating cancer using PRMT5 inhibitors” (Janssen Pharmaceutica NV, priority 2019, dated 2023)

How the values were obtained:
[1] = target: PRMT5/MEP50 (Homo sapiens, UniProt O14744); test: surface plasmon resonance binding studies
From the text: (§1) This unique mode-of-binding translates into very potent and time-dependent PRMT5 enzyme inhibition.

[2] = target: PRMT5/MEP50 complex (Homo sapiens, UniProt O14744); test: in vitro thermal shift experiments; type: binding
From the text: as §1

[3] = system: NCI-H1048 human xenograft model of SCLC; test: NCI-H1048 human SCLC xenograft, once daily oral dosing up to 28 days (Study 1); type: in vivo, mice
Description: JNJ-64619178 was tested for antitumor activity in the NCI-H1048 human xenograft model of SCLC. Male mice were subcutaneously implanted with NCI-H1048 cells, and tumors were allowed to grow for 14 days, reaching 174±51 mm^3 in volume, when treatment was started. Mice were administered once daily oral doses of JNJ-64619178 at 1, 3, and 10 mg/kg or 20% hydroxypropyl-β-cyclodextrin (HP-β-CD) vehicle control for up to 28 days.
FIG. 1 details the individual tumor regrowth observed following cessation of once daily treatment with 10 mg/kg JNJ 64619178 or vehicle control. In all 8 mice treated with 10 mg/kg JNJ 64619178, tumor regrowth began approximately 14 days after cessation of dosing, with tumors reaching ethical limits by Day 92 postimplantation.

[4] = system: NCI H1048 human SCLC xenografts; test: second NCI-H1048 human SCLC mouse xenograft study, 10 days dosing and 10 days regrowth observation; type: in vivo, mice; settings: 10 mg/kg oral gavage for 10 days
[5] = system: NCI-H1048 xenografts; test: NCI-H1048 xenograft, continuous versus 7+/7- dosing (Study 3); type: in vivo, mice; settings: 10 mg/kg once daily oral, at day 28
Description: FIG. 4 is a line graph showing extended tumor growth inhibition using a dosing cessation of the compound of the disclosure in the NCI-H1048 tumor model at a JNJ64619178 dosage of 10 mg/kg for either 28 consecutive days or for two cycles of 7 daily drug treatment followed by 7 days dosing holidays (7+/7 −, 2 cycles).
In all xenografts studies, the average tumor volume at treatment initiation was about 150 mm^3 and mean tumor volumes (mm^3)±SEM of each group were graphed over time as indicated in FIG. 4.

[6] = Phase 1 open-label study Part 1: safety and tolerability; type: in vivo, human
From the text: (§2) This is a multi-part, Phase 1, open-label, multicenter study to evaluate the safety, pharmacokinetics, pharmacodynamics, and preliminary clinical activity of JNJ-64619178 monotherapy administered either to adult human subjects with advanced solid tumors or B cell non-Hodgkin lymphomas who previously received or are ineligible for standard treatment options, or to adult subjects with lower risk myelodysplastic syndromes (MDS) who are red blood cell (RBC) transfusion-dependent and relapsed or refractory to erythropoiesis-stimulating agent (ESA) treatment.
Fifteen (15) participants with various solid tumors (e.g., breast cancer, prostate cancer, salivary duct carcinoma, adenoid cystic carcinoma) were dosed in the “Part 1” study described below with JNJ-64619178 at 0.5 mg (1′ cohort), 1 mg (2nd cohort), 2 mg (3rd cohort) and 4 mg (4th cohort) under a schedule of 14 days continuous dose administration followed by a 7-day rest period (14 days on/7 days off in a 21-day cycle). Average treatment duration ranged from 4 weeks in the 4th cohort (4 mg 14 days on/7 days off) to 6 months in the 2nd cohort (1 mg 14 days on/7 days off). […] The Part 1 study is ongoing.
(§3) Fifty-four (54) participants with various solid tumors (e.g., breast cancer, prostate cancer, salivary duct carcinoma, adenoid cystic carcinoma, and uveal melanoma) were dosed in the “Part 1” study described below with JNJ-64619178 at 0.5 mg (1st cohort), 1 mg (2nd cohort), 2 mg (3rd cohort), 4 mg (4th cohort), and 3 mg (5th cohort) under a schedule of 14 days continuous dose administration followed by a 7-day rest period (14 days on/7 days off in a 21-day cycle); or at 1 mg (6th cohort) or 2 mg (7th cohort) under a schedule of 21 days continuous dosing. Average treatment duration was 3 months, with a range of 0.4 to 22.4 months. […] The maximum tolerated dose was considered 3 mg on the 14 days on/7 days off schedule or 2 mg on the continuous dosing schedule. […] The participant with confirmed PR was from cohort 2.
The JNJ-64619178 starting dose is based on toxicology results obtained using no observed adverse effect level (NOAEL) dose, more conservative than the highest non-severely toxic dose (HNSTD) in the dog as the most sensitive species. Using a default safety factor of 6 (used for HNSTD in non-rodents), a starting dose of 0.54 mg once daily (QD) was obtained, which was rounded to 0.5 mg QD. A single dose of the study drug will be administered in the pharmacokinetic run-in phase for Part 1. During the treatment phase, the study drug will be administered for 14 consecutive days followed by 7 days of rest (14 days on/7 days off dose administration) on a 21 day cycle. Alternative dosing schedules (e.g., continuous dosing, 7 days on/7 days off, and 7 days on/14 days off) are also evaluated.
The study was initiated with dose Schedule A (14 days on/7 days off dose administration on a 21-day cycle). Table B below provides an example of possible dose escalation.

[7] = system: various solid tumors; test: Phase 1 open-label study Part 1: preliminary clinical activity (RECIST); type: in vivo, human
From the text: as §2, §3
(§4) Two provisional RP2Ds were selected: 1.5 mg intermittently and 1 mg QD.

[8] = Phase 1 open-label study Part 1: plasma pharmacokinetics; type: in vivo; settings: human plasma, oral capsules
Description: as §4
The pharmacokinetic run-in phase will evaluate the single-dose pharmacokinetics of JNJ 64619178 prior to subsequent daily dose administration in the treatment phase. Subjects will be administered a single-dose of study drug at the site on Day 1 and remain at site for at least 6 hours for pharmacokinetic assessments. The single-dose of study drug will be followed by a 6 day rest period (i.e., Days 2 to 7 [a range of 5 to 10 days is allowed]) during which pharmacokinetic blood sample and ECG collection will be conducted. Certain subjects in Part 1 may not participate in the pharmacokinetic run-in phase.
The treatment phase begins on Cycle 1 Day 1 with the administration of the study drug and continues until the completion of the end-of-treatment visit. During the treatment phase, multiple-dose pharmacokinetics of JNJ-64619178 will be evaluated. On Cycle 1 Day 14, subjects in Part 1 will remain at site for at least 8 hours after the study drug administration for pharmacokinetic and ECG assessments. Study drug should be administered at approximately the same time each day for accurate evaluation of the pharmacokinetics of JNJ 64619178.

[9] = system: plasma SDMA; test: Phase 1 open-label study Part 1: target engagement by plasma SDMA; type: in vivo, human; settings: even with intermittent dosing
Description: as §4

Chain of PRMT5/MEP50 complex (O14744 whole entry): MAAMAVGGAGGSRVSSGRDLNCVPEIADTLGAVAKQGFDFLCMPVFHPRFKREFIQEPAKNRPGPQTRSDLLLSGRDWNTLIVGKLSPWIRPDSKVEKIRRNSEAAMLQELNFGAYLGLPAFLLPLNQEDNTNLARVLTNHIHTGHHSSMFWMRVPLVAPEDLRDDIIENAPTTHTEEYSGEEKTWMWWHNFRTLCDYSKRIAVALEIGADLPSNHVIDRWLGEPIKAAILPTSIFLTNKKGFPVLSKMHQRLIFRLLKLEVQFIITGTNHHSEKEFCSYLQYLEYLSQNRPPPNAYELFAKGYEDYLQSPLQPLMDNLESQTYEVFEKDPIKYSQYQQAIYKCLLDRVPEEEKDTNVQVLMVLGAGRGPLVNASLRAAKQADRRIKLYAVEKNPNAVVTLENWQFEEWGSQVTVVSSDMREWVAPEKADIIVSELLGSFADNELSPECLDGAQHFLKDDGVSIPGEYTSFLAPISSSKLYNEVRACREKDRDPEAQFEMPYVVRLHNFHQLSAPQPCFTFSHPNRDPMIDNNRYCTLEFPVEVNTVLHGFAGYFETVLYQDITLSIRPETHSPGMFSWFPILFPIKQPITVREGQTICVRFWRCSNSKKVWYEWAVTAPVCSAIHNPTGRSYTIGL
Chain of PRMT5/MEP50 complex (Q9BQA1 whole entry partner): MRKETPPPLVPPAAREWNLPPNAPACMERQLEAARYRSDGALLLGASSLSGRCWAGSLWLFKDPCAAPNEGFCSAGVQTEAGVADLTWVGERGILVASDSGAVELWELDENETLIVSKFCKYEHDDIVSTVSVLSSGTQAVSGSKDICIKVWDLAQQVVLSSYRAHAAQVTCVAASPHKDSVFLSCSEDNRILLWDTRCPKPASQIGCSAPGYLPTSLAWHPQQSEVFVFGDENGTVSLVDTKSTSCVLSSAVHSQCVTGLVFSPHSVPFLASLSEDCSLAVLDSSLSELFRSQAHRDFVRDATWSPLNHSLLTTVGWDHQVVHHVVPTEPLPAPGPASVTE
Chain of PRMT5/MEP50 (O14744 whole entry): as the sequence (O14744 whole entry) above
Chain of PRMT5/MEP50 (Q9BQA1 whole entry partner): as the sequence (Q9BQA1 whole entry partner) above

Nc1nc2cc(CC[C@H]3C[C@@H](n4ccc5c(N)ncnc54)[C@H](O)[C@@H]3O)ccc2cc1Br [JNJ-64619178, (1S,2R,3S,5R)-3-(2-(2-amino-3-bromoquinolin-7-yl)ethyl)-5-(4-amino-7H-pyrrolo[2,3-d]pyrimidin-7-yl)cyclopentane-1,2-diol]
binding kinetics [1]: slow off-rate binding kinetics | additional stabilization of the PRMT5/MEP50 complex in comparison to SAM binding [2]: 12 degrees Celsius | time complete regression was maintained postdose ([3]; 10 mg/kg once daily oral): up to 14 days | tumor regression ([3]; 10 mg/kg once daily oral): complete regression of tumors | tumor growth inhibition (TGI) ([3]; 10 mg/kg once daily oral, Day 42 postimplantation, vs vehicle control): 99.1% | start of tumor regrowth after cessation of dosing ([3]; 10 mg/kg once daily, all 8 mice): approximately 14 days | antitumor activity (statistical significance) compared with vehicle control ([3]; 1, 3, and 10 mg/kg once daily oral): statistically significant antitumor activity | antitumor activity (biological significance) ([3]; 3 and 10 mg/kg once daily oral): biologically significant antitumor activity | tumor growth inhibition (TGI) [4]: up to 72.9% | tumor growth inhibition (TGI) compared to vehicle ([5]; 28 consecutive days): 62% | tumor growth inhibition (TGI) compared to vehicle ([5]; two cycles of 7 days on/7 days off (7+/7-)): 63% | maximum tolerated dose ([6]; 14 days on/7 days off schedule): 3 mg | maximum tolerated dose ([6]; continuous dosing schedule): 2 mg | dose-limiting toxicities ([6]; human, in vivo): thrombocytopenia of Grade 4 or of Grade 3 lasting longer than 7 days | grade of non-hematologic toxicities ([6]; human, in vivo): Grade 1 or 2 except for one case of Grade 3 vomiting lasting 24 hours | adverse events observed in >20% of participants ([6]; in vivo): gastrointestinal disorders (nausea, vomiting, diarrhea), hematologic disorders (thrombocytopenia, anemia, neutropenia), general disorders (fatigue and asthenia) and dysgeusia | dose limiting toxicities (DLTs) ([6]; in vivo): No dose limiting toxicities (DLTs) were observed | most frequently reported adverse events ([6]; in vivo): hematologic, gastrointestinal and dermatologic | best overall response: confirmed partial response ([7]; 1 of 45 participants evaluable for efficacy, from cohort 2): 4.3% | best overall response: progressive disease ([7]; 20 of 45 participants evaluable for efficacy): 43% | best overall response: stable disease ([7]; 24 of 45 participants evaluable for efficacy): 52% | response (RECIST) in ACC ([7]; adenoid cystic carcinoma): confirmed partial response | duration of stable disease ([7]; patients with ACC, prostate cancer, salivary gland carcinomas, and other tumor types): greater than 6 months | plasma Cmax and AUC dose dependence [8]: linearly dose-proportional | target engagement as measured by plasma SDMA [9]: Robust target engagement
